Activity calls are given as the source filed them.
Assays:
[1] = NIH3T3 cell viability loss – ATP luminescence, mouse fibroblasts, counter-screen, dose response (AID 2010); format: functional, cell-based;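 also: cells exposed to compound for about 90 hours before reading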
[2] = biological target: T1, Heat shock factor protein 1 (Mus musculus, UniProt P38532); assay: enhancement of HSF1-driven luciferase signal – cell-based, NIH3T3, luminescence, dose retest, confirmation (AID 435004); format: functional;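 also: stress induced by proteasome inhibitor MG132 added 30 min after compound; luciferase reporter driven by HSF1 response element in NIH3T3 cells; actives raise luminescence as potentiators of the MG132 stress response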
T1 sequence (P38532 whole entry): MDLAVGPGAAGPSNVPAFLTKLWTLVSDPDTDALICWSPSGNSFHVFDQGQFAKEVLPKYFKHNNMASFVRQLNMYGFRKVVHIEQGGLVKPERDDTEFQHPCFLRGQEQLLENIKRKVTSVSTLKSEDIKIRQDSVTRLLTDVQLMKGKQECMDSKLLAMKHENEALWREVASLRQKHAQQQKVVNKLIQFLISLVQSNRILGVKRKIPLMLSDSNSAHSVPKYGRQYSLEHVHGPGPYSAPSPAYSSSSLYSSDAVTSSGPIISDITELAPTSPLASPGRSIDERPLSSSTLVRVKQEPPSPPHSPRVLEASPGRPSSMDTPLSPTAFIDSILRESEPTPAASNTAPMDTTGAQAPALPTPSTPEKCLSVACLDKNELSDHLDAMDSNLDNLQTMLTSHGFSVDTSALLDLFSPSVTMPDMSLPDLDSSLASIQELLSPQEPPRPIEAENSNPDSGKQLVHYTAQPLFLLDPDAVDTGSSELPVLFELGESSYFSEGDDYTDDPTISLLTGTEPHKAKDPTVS

[3] = Trypanosoma cruzi growth suppression in host cells – NIH3T3 host cells, beta-gal luminescence, confirmation (AID 2044); format: functional, cell-based;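 also: intracellular parasites grown in NIH/3T3 mouse fibroblasts as host cells; luminescent beta-galactosidase reporter signal from transgenic T. cruzi replicating inside host cells; inhibitors lower the luminescence signal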
[4] = viability loss of HPDE-C7K cells – cell-based, fluorescence, HTS, primary screen (AID 431); format: functional; conditions: Homo sapiens
[5] = viability of uninfected HEp-2 cells – cell-based, HTS, cytotoxicity control for RSV inhibitor project, dose response (AID 2410); format: functional; conditions: human respiratory syncytial virus
[6] = HPDE-C7 pancreatic duct cell viability loss – fluorescence, HTS (AID 430); format: functional, cell-based; conditions: Homo sapiens
[7] = biological target: T2, Fatty acid synthase (Homo sapiens, UniProt P49327); assay: inhibition of human FAS-TE enzyme activity – biochemical, kinetic fluorescence intensity, dose response (AID 624326); format: functional;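 also: rate of fluorescence rise from hydrolysis of a fluorogenic O-methyl fluorescein ester substrate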
T2 sequence (P49327 whole entry): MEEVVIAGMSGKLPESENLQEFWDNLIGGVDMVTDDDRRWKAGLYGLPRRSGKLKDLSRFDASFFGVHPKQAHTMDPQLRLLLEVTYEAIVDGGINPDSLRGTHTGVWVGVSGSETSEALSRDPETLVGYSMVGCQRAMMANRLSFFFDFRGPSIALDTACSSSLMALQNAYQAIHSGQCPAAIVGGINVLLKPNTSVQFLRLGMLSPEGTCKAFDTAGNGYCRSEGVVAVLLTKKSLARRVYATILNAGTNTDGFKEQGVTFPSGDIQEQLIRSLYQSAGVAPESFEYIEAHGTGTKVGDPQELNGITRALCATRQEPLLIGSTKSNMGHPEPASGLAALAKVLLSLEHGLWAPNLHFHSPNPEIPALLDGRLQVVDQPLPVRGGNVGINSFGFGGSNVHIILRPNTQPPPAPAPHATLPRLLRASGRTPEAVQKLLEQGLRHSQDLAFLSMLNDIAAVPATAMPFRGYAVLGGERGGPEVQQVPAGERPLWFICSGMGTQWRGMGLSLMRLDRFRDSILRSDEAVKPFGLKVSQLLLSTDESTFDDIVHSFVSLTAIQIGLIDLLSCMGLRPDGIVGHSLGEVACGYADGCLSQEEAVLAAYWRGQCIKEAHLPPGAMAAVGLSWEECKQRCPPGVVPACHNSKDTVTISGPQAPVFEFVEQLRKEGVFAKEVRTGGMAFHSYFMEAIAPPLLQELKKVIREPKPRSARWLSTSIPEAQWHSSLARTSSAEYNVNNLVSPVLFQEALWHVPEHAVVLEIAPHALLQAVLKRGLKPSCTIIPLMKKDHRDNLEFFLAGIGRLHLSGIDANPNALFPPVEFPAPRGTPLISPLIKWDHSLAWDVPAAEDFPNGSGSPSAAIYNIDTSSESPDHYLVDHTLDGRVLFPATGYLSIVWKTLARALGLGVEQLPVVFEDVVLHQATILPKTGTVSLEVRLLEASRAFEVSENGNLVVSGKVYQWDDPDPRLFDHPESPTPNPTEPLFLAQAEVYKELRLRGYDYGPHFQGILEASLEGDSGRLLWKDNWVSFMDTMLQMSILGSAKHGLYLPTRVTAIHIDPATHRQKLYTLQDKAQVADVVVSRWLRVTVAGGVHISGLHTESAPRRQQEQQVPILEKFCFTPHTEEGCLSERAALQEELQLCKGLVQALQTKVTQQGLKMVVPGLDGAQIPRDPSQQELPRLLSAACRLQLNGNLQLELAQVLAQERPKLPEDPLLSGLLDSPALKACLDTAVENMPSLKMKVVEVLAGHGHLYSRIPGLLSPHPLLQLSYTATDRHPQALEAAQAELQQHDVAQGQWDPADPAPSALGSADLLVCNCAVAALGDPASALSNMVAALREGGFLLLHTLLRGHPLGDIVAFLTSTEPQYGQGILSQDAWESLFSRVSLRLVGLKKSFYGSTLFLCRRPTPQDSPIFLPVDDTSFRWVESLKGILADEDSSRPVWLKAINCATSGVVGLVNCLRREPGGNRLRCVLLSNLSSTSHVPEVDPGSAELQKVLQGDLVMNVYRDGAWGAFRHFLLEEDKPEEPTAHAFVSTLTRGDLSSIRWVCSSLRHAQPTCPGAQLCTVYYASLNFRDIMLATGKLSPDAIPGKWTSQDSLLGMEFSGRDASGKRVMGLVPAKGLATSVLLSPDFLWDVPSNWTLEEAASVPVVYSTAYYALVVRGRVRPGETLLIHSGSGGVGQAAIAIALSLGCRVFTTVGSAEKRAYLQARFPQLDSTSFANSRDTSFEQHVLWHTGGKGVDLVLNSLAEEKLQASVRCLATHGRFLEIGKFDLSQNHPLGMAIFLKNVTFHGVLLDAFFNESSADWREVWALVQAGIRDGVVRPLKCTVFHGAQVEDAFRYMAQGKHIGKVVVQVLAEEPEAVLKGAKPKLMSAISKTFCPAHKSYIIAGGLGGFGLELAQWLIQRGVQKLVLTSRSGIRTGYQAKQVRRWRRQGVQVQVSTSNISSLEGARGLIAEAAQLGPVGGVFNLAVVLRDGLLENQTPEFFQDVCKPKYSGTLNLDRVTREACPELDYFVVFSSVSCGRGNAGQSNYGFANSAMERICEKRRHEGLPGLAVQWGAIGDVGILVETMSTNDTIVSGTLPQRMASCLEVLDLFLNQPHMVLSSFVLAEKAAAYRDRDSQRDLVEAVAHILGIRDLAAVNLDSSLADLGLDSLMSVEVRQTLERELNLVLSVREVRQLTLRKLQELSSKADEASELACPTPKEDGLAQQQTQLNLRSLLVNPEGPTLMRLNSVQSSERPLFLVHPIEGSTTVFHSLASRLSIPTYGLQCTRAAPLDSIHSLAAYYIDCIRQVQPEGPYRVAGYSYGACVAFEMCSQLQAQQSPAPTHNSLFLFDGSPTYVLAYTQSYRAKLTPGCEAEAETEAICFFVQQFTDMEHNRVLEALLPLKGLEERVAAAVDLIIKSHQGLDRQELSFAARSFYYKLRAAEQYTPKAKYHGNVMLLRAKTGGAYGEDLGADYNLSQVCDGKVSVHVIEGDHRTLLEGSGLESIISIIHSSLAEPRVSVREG

[8] = biological target: T2, Fatty acid synthase; assay: inhibition of human FAS-TE enzyme activity – biochemical, endpoint fluorescence intensity, uHTS hits, dose response (AID 624327); format: functional;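 also: fluorescence from hydrolysis of an O-methyl fluorescein acyl ester substrate by the enzyme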
[9] = biological target: T3, Histone-lysine N-methyltransferase NSD2 (Homo sapiens, UniProt O96028); format: biochemical
T3 sequence (O96028 whole entry): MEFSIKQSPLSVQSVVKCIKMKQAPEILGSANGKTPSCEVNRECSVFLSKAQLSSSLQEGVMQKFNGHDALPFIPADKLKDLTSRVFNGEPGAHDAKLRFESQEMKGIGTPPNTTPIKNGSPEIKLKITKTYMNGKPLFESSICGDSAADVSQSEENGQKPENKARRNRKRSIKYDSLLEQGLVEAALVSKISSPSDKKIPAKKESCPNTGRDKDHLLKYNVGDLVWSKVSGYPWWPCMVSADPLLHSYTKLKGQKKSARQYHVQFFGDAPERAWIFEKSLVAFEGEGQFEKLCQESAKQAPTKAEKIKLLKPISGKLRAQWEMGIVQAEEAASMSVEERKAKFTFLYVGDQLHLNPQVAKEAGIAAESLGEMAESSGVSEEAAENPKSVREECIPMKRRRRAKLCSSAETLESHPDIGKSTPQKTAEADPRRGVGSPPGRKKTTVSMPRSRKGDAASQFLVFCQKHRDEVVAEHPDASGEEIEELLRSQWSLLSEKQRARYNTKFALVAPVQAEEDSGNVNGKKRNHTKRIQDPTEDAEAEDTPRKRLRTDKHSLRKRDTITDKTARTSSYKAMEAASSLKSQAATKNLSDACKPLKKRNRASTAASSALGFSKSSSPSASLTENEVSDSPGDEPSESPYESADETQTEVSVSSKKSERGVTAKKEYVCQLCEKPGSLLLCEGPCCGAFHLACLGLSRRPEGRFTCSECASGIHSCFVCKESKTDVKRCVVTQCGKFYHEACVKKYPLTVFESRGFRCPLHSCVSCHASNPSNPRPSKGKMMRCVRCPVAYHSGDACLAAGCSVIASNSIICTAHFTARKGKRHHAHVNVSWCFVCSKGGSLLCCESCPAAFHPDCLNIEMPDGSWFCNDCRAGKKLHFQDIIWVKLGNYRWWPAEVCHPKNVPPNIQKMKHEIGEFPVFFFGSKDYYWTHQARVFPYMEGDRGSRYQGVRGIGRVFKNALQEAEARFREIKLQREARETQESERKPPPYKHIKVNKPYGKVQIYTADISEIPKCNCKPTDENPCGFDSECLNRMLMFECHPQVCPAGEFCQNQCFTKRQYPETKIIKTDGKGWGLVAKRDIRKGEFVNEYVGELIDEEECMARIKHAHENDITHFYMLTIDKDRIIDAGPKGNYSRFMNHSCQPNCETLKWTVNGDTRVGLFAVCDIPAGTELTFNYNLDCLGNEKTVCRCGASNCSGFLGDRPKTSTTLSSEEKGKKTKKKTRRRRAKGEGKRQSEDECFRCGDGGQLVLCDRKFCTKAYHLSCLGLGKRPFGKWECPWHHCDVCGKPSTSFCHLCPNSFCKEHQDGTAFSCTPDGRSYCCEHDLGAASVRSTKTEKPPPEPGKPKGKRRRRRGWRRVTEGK

[10] = alpha-synuclein stem-loop luciferase translation blockers – H4 neuroglioma cells, luminescence, confirmation (AID 1988); format: functional, cell-based
[11] = Luminescence Cell-Based Dose Response HTS to Identify Inhibitors of 5'UTR Stem-Loop Driven Prion Protein mRNA Translation in H4 Neuroglioblastoma Cells. [Related pubchem assays: 1827 (Project Summary), 1813 (Primary HTS)]; format: functional
[12] = blockade of melanocortin 4 receptor signaling – cell-based, plate reader, cherry pick, counter-screen for LGR2 antagonist project, dose response (AID 743444); format: functional;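 also: transfected HEK 293 cells stimulated with alpha-MSH peptide; potency of inhibitors of the alpha-MSH evoked signal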
[13] = luciferase reporter signal suppression in cells – H4 neuroglioma cells, luminescence, dose response (AID 1990); format: functional, cell-based
[14] = blockers of bursicon-stimulated LGR2 cAMP reporter – cell-based, HEK293, CRE-luciferase reporter, cherry pick, set 2, dose response (AID 743343); format: functional;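 also: transfected cells were stimulated with diluted bursicon conditioned medium after compound addition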
[15] = toxicity toward HepG2 liver cells – cell-based, plate reader, cherry-pick, antagonist series, cytotoxicity control, dose response (AID 743416); format: functional
[16] = biological target: T4, Microphthalmia-associated transcription factor (Homo sapiens, UniProt O75030); assay: reducers of TRPM1 reporter luminescence, concentration series – cell-based, SK-MEL-5, cherry-picked, set 3, MITF inhibitor project, dose response (AID 493073); format: functional;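 also: SK-MEL-5 melanoma cells with luciferase driven by the MITF target TRPM1 promoter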
T4 sequence (O75030 whole entry): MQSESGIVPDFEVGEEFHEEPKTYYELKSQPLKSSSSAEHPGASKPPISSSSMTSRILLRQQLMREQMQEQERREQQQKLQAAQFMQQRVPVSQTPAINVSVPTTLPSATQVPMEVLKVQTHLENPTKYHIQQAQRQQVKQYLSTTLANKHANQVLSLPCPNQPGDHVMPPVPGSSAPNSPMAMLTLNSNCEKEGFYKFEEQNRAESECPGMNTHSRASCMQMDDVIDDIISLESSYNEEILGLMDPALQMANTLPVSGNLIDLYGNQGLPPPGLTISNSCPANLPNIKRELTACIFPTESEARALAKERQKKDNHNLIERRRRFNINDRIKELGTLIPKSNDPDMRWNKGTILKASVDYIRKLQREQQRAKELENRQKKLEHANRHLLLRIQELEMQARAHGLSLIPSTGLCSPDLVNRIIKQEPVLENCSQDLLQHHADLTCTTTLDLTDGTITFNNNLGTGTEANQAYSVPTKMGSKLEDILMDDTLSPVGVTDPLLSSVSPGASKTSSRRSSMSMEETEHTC

[17] = A549 cell cytotoxicity, dose response, cytotoxicity control, plate reader, cherry-pick, antagonist series (AID 743412); format: functional, cell-based
[18] = biological target: T5, Estrogen receptor beta (Homo sapiens, UniProt Q92731); assay: blockers of SRC-3 recruitment to ERβ – biochemical, ELISA, streptavidin-HRP readout, orthogonal assay, confirmation (AID 1060)
T5 sequence (Q92731 whole entry, the tested form may be a part): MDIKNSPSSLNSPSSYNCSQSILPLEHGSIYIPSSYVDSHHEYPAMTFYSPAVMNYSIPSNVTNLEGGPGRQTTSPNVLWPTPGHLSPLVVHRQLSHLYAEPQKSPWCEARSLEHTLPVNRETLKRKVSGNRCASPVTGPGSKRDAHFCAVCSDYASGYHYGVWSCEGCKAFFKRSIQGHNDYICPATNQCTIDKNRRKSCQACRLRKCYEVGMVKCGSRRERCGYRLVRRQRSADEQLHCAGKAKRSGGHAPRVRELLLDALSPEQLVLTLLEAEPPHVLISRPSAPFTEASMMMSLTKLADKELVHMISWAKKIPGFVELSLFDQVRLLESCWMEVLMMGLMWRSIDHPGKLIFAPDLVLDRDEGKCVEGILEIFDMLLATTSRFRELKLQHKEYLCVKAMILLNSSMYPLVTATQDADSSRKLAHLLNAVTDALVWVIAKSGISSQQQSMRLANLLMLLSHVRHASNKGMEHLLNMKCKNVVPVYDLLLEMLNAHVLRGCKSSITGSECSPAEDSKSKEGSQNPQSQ

[19] = biological target: T6, Carboxy-terminal domain RNA polymerase II polypeptide A small phosphatase 1 (Homo sapiens, UniProt Q9GZU7); assay: CTDSP1 inhibitors, concentration-response, biochemical, absorbance readout, ultra-high-throughput screen actives (AID 540297); format: functional
T6 sequence (Q9GZU7 whole entry): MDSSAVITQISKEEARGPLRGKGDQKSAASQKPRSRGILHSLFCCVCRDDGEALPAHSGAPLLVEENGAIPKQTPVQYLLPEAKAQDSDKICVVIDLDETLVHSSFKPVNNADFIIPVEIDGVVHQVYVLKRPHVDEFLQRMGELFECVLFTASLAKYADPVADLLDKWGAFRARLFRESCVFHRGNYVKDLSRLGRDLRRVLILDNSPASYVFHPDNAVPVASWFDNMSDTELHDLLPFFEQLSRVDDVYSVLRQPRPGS

[20] = biological target: T5, Estrogen receptor beta
[21] = Luminescence Cell-Based Dose Response HTS to Identify Activators of Luciferase Translation or Activity in H4 […] Cells. [Related pubchem assays: 1829 (Project Summary), 1814 (Primary HTS)]; format: functional
[22] = test system: H4; assay: Luminescence Cell-Based Dose Response HTS to Identify Activators of 5'UTR Stem-Loop Driven Prion Protein mRNA Translation in H4 Neuroglioblastoma Cells. [Related pubchem assays: 1829 (Project Summary), 1814 (Primary HTS)]; format: functional; conditions: Homo sapiens
[23] = Luminescence Cell-Based Dose Confirmation HTS to Identify Activators of 5'UTR Stem-Loop Driven Alpha-Synuclein mRNA Translation in H4 Neuroglioblastoma Cells. [Related pubchem assays: 1829 (Project Summary), 1814 (Primary HTS)]; format: functional
[24] = biological target: Mitogen-activated protein kinase 10 (Homo sapiens, UniProt P53779); assay: Dose response biochemical screening assay for inhibitors of c-Jun N-Terminal Kinase 3 (JNK3). [Related pubchem assays: 746 ]
Mitogen-activated protein kinase 10, sequence (P53779 whole entry): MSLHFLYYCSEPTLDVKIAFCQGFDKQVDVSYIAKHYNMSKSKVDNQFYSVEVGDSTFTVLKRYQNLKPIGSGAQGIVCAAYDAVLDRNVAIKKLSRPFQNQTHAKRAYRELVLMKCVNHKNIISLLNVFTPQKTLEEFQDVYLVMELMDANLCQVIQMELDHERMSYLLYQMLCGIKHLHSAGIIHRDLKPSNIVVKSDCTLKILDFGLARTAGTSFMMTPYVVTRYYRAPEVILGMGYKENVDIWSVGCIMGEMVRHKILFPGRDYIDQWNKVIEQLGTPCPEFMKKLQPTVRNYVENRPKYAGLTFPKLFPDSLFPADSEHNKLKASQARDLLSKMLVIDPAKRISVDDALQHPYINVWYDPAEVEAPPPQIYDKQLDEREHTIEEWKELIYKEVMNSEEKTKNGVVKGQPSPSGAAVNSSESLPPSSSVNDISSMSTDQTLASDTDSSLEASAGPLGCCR

[25] = viability loss in HEK293 cells – cell-based, plate reader, cherry-picked samples, cytotoxicity control, dose response (AID 743446); format: functional

c1ccc(-c2nc(NCc3cccnc3)c3oc4ccccc4c3n2)cc1
EC50 [1]: > 60 µM (not active)
EC50 [2]: > 260 µM (inactive)
EC50 [3]: 2.22 µM (active)
EC50 [4]: 15.8 µM (active)
CC50 [5]: 28.9 µM (active)
EC50 [6]: 14.2 µM (active)

CN1CCN(CC(=O)Nc2sc3c(c2C#N)CCC(C(C)(C)C)C3)CC1 (configuration not stated)
EC50 [4]: > 20 µM (not active)
EC50 [6]: > 20 µM (not active)

CN(Cc1ccc(C(C)(C)C)cc1)C(=O)Cc1ccc(S(=O)(=O)N2CCOCC2)s1
IC50 [7]: 0.291 µM (active)
IC50 [8]: 0.424 µM (active)

CCN(CC)CCCNc1cc(C)c(C#N)c2nc3ccccc3n12
AC50 [9]: > 20 µM (inactive)

COc1ccc(/C=C(\NC(=O)c2ccc([N+](=O)[O-])cc2)C(=O)NCCCN2CCOCC2)cc1
IC50 [7]: 2.95 µM (active)
IC50 [8]: 4.51 µM (active)

COc1ccc(C(=O)Nc2ccc3ccccc3c2)cc1
EC50 [10]: 6.82 µM (active)
EC50 [11]: 10.4 µM (inconclusive)
AC50 [12]: 8.43 µM (active)
EC50 [13]: 9.12 µM (inconclusive)
AC50 [14]: 5.78 µM (active)
AC50 [15]: 45.6 µM (active)

COc1ccc(N2CCN(C(=O)CSc3ccc([N+](=O)[O-])cc3)CC2)cc1
IC50 [7]: 12.9 µM (active)
IC50 [8]: 21.1 µM (inactive)

COc1cc(C(=O)COC(=O)c2cc([N+](=O)[O-])ccc2N2CCOCC2)ccc1OC(F)F
IC50 [7]: 10.1 µM (active)
IC50 [8]: 10.3 µM (active)

O=C(Nc1cccc(Cl)c1)c1cc([N+](=O)[O-])ccc1N1CCN(CCO)CC1
IC50 [7]: 2.72 µM (active)
IC50 [8]: 6.61 µM (active)

Cc1ccc(-n2[nH]c(=O)c(-c3ccccn3)c2C)cc1
EC50 [10]: 2 µM (active)
AC50 [16]: 3.23 µM (active)
EC50 [11]: 0.571 µM (active)
AC50 [12]: 2.08 µM (active)
AC50 [14]: 1.61 µM (active)
AC50 [17]: > 52 µM (inactive)

O=C(COC(=O)c1ccccc1)NCc1ccco1
IC50 [18]: 0.351 µM (not active)
IC50 [19]: 11.1 µM (active)
IC50 [20]: 5.54 µM (active)

N#CC1=C(N)NC(SCc2ccc(F)cc2)=C(C#N)C12CCCCC2
EC50 [21]: > 120 µM (not active)
EC50 [22]: > 120 µM (not active)
EC50 [23]: > 120 µM (not active)
EC50 [4]: 9.03 µM (active)
EC50 [6]: 10.4 µM (active)

Cc1nc(NCc2ccco2)c(C#N)c2c1COC(C)(C)C2
IC50 [24]: 37.5 µM (not active)

CCNCCC(CCC(C)C)c1ccc2c(c1)OCO2 (configuration not stated)
AC50 [9]: > 20 µM (inactive)

O=C(Nc1nnc(C2CC2)s1)c1ccccn1
AC50 [12]: 17.1 µM (active)
AC50 [25]: 19 µM (active)
AC50 [14]: 18.3 µM (active)
AC50 [17]: 7.92 µM (active)
AC50 [15]: 8.23 µM (active)

CCOC(=O)c1cnc2ccc(Cl)cc2c1N1CCN(C)CC1
IC50 [24]: 25.9 µM (not active)

From ChEMBL document CHEMBL1201862, “PubChem BioAssay data set” (2004)
